According to ChEMBL document CHEMBL3997762 (Medchemcomm, 2016):
Calls of active or inactive are those of the source. No cut-off for these calls is given here.

How the values were obtained:
GES1 [1] = experiment: Cytotoxicity against human GES-1 cells assessed as effect on cell viability at 50 uM after 48 hrs by MTT assay relative to control; format: cell-based; details: ges1, 48 h
[2] = Drug uptake in human SGC7901 cells at 5 uM after 24 hrs by flow cytometry relative to control; format: ADME, cell-based; details: sgc-7901, 24 h
[3] = Drug localization in mitochondria of human SGC7901 cells at 5 uM after 24 hrs by MitoTracker Red CM-H2-XRos/Hoechst 33342 dye based confocal fluorescence microscopic analysis; format: ADME
[4] = Stability of the compound in DMEM in presence of FBS up to 96 hrs by fluorescence assay
SGC-7901 [5] = experiment: Cytotoxicity against human SGC7901 cells assessed as decrease in cell viability pretreated for 4 hrs followed by DTT addition measured 48 to 72 hrs post dose by MTT assay; format: functional, cell-based
SGC-7901 [6] = experiment: Cytotoxicity against human SGC7901 cells assessed as effect on cell viability at 50 uM after 48 hrs by MTT assay relative to control; format: functional
SGC-7901 [7] = experiment: Cytotoxicity against human SGC7901 cells assessed as effect on cell viability at 10 uM after 48 hrs by MTT assay relative to control; format: functional
[8] = Drug uptake in human SGC7901 cells at 5 uM after 4 hrs by flow cytometry relative to control; format: ADME, cell-based; details: sgc-7901, 4 h
[9] = Stability of the compound in PBS in presence of FBS by fluorescence assay; format: physicochemical; details: cattle, buffer
[10] = Drug uptake in human SGC7901 cells at 5 uM after 48 hrs by flow cytometry relative to control; format: ADME, cell-based; details: sgc-7901, 48 h
GES1 [11] = experiment: Cytotoxicity against human GES-1 cells assessed as effect on cell viability at 10 uM after 48 hrs by MTT assay relative to control; format: cell-based; details: ges1, 48 h
[12] = Drug uptake in human SGC7901 cells at 5 uM after 24 hrs by MitoTracker Red CM-H2-XRos/Hoechst 33342 dye based confocal fluorescence microscopic analysis; format: ADME, cell-based; details: sgc-7901, 24 h
[13] = Stability of the compound in DMEM in presence of FBS by fluorescence assay
[14] = Drug uptake in human SGC7901 cells at 3 uM after 4 hrs by flow cytometry relative to control; format: ADME, cell-based; details: sgc-7901, 4 h
[15] = Drug uptake in human SGC7901 cells at 3 uM after 24 hrs by flow cytometry relative to control; format: ADME, cell-based; details: sgc-7901, 24 h
GES1 [16] = experiment: Cytotoxicity against human GES-1 cells assessed as effect on cell viability up to 100 uM after 48 to 72 hrs by MTT assay; format: cell-based
SGC-7901 [17] = experiment: Induction of apoptosis in human SGC7901 cells after 48 hrs by Annexin V/[…] staining-based flow cytometric method; format: functional, cell-based
SGC-7901 [18] = experiment: Cell cycle arrest in human SGC7901 cells assessed as accumulation at S phase at >20 uM after 24 hrs by propidium iodide staining based flow cytometry; format: functional
SGC-7901 [19] = experiment: Cell cycle arrest in human SGC7901 cells assessed as decrease in G1 phase at >20 uM after 24 hrs by propidium iodide staining based flow cytometry; format: functional
SGC-7901 [20] = experiment: Induction of apoptosis in human SGC7901 cells assessed as decrease in nonapoptotic cells after 48 hrs by Annexin V/[…] staining-based flow cytometric method; format: functional, cell-based
SGC-7901 [21] = experiment: Induction of apoptosis in human SGC7901 cells assessed as decrease in viable cells after 48 hrs by Annexin V/[…] staining-based flow cytometric method; format: functional, cell-based
[22] = Drug localization in mitochondria of human MCF7 cells at 5 uM after 24 hrs by MitoTracker Red CM-H2-XRos/Hoechst 33342 dye based confocal fluorescence microscopic analysis; format: ADME
SGC-7901 [23] = experiment: Cell cycle arrest in human SGC7901 cells assessed as accumulation at G1 phase at <20 uM after 24 hrs by propidium iodide staining based flow cytometry; format: functional
SGC-7901 [24] = experiment: Induction of ROS production in human SGC7901 cells at 5 to 10 uM after 48 hrs by MitoTracker Red CM-H2-XRos dye based flow cytometry; format: functional, cell-based
SGC-7901 [25] = experiment: Induction of ROS production in human SGC7901 cells at 5 to 20 uM after 48 hrs by DHE dye based flow cytometry; format: functional, cell-based

Row | Structure (SMILES) | fold change (FC) (GES1 [1]) | Drug uptake [2] | fold change (FC) (SGC-7901 [6]) | fold change (FC) (SGC-7901 [7]) | Drug uptake [8] | Stability [9] | Drug uptake [10] | fold change (FC) (GES1 [11]) | Drug uptake [12] | Stability [13] | Activity (GES1 [16]) | further results
1 | O=c1[nH]c(=O)n(CCSSCC[n+]2ccc(/C=C/c3c[nH]c4ccccc34)cc2)cc1F.[Br-] | 0.895 | 98.8% | 1.021 | 1.108 | 93.2% | 72 h | 99.6% | 0.978 |  |  |  | Drug uptake [3]: Active; Stability [4]: Stable; Activity (SGC-7901 [5]): Active
2 | O=c1[nH]c(=O)n(CCC[n+]2ccc(/C=C/c3c[nH]c4ccccc34)cc2)cc1F.[Br-] | 1.072 | 80.5% | 1.019 |  | 78% | 72 h | 62.6% |  | Not Active | 48 h |  | 
3 | C[n+]1ccc(/C=C/c2c[nH]c3ccccc23)cc1.[I-] |  |  |  |  |  |  |  |  |  |  |  | Drug uptake [14]: 95.4%; Drug uptake [15]: 96.9%
4 | O=c1[nH]cc(F)c(=O)[nH]1 [FLUOROURACIL] | 0.53 |  | 0.6 | 0.986 |  |  |  | 0.733 |  |  | Toxic | 
5 | O=C(Cn1cc(F)c(=O)[nH]c1=O)OCC[n+]1ccc(/C=C/c2c[nH]c3ccccc23)cc1.[Br-] | 0.561 | 96.6% | 0.597 | 0.707 | 96.5% | 72 h | 95.8% | 0.822 |  | 48 h | Non-Toxic | Activity (SGC-7901 [17]): Dose-dependent effect; Activity (SGC-7901 [18]): Active; Activity (SGC-7901 [19]): Active; Activity (SGC-7901 [20]): Dose-dependent effect; Activity (SGC-7901 [21]): Dose-dependent effect; Drug uptake [22]: Active; Activity (SGC-7901 [23]): Active; Activity (SGC-7901 [24]): Active; Activity (SGC-7901 [25]): Active
6 | O=C(Cn1cc(F)c(=O)[nH]c1=O)NCC[n+]1ccc(/C=C/c2c[nH]c3ccccc23)cc1.[Br-] | 1.069 | 1.4% | 0.888 | 0.977 | 0.8% | 72 h | 1.6% | 1.055 | Not Active | 48 h |  | 
